This note sets out measurements from US20130338032A1, “ASSAY FOR DETERMINING EPIGENETIC PROFILES OF MARKERS OF FRAGILE X ALLELES” (Murdoch Childrens Research Institute, priority 2009, published 2013).

Common to all, as to assay type: cell-based, human
For one experiment, the system named is FREE1. The experiment is described as follows: FREE1 methylation (MALDI-TOF MS) in lymphoblast cell lines treated with 5-aza. How it is done:
(§1) FIG. 1B through J is a graphical representation of the expression of the FMR1 and FRR4 mRNA and FREE1 methylation in lymphoblast cultures with selectively depleted DNMTI. Cell lines from (B, C, D) a HC cell line (30 CGGs), (E, F, G) a PM cell line (103 CGGs) and (H, I, J) a FM cell line from an FXS individual (490 CGGs) were cultured for 3 days in standard RPMI medium/10% v/v fetal bovine serum treated with different doses of 5-aza-deoxycytidine, in triplicate wells, with half of the cells from each well taken for DNA methylation analysis, and the other half for mRNA analyses. FREE1 methylation for each sample was examined from duplicate bisulfite reactions, with single PCR products made from each conversion. The 0.1 methylation output ratio cutoff was not used for this experiment due to an increased number of technical replicates, with values expressed as means of six technical replicates per condition. Methylation and mRNA levels were assessed in the same wells using MALDI-TOF MS and real-time PCR, respectively. The error bars represent standard error (n=3 to 6). All conditions were compared to 0 μM 5-aza control: ***-p<0.001; **-p<0.05.
Lymphoblast cell lines were established by Epstein-Barr virus (EBV) transformation from peripheral blood of individuals with: 30, 170 and 490 repeats. The cell lines were treated with 5 aza based on a previously described protocol (Pietrobono et al, 2002, supra). Briefly, A 10 mM stock solution of 5-aza (Sigma-Aldrich) was initially prepared in sterile water. The cell-viability counts and cell composition were determined by trypan blue exclusion, using a hemocytometer. Cells were then resuspended at a density of […] in RPMI medium (Sigma St Luis, Mo., USA)/10% v/v Fetal bovine serum (CSL) at 37° C., 5% v/v CO2, supplemented with of 5-aza stock and thoroughly resuspended. The cells were cultured in triplicate wells for each of the four final 5-Aza concentrations of: 0, 1, 10 and 100 μM. […]

A further experiment concerns FMR1 mRNA. The experiment is described as follows: FMR1 mRNA (real-time PCR) in lymphoblast cell lines treated with 5-aza. To be noted: 5-aza 0, 1, 10, 100 μM, 3 days. As to the method:
as §1, with “All conditions were compared to 0 μM 5-aza control: ***-p<0.001; **-p<0.05.” left out
(§2) Lymphoblast cell lines were established by Epstein-Barr virus (EBV) transformation from peripheral blood of individuals with: 30, 170 and 490 repeats. […] The cell-viability counts and cell composition were determined by trypan blue exclusion, using a hemocytometer. […]
A general note: In qPCR the cycle at which signal appears reflects the starting amount.

The test system of the next experiment is FMR4/ASFMR1 mRNA. Kind of experiment: FMR4/ASFMR1 mRNA (real-time PCR) in lymphoblast cell lines treated with 5-aza. How it is done:
as §1, §2
Total RNA was extracted and purified using the Rneasy extraction kit, as per manufacturer's instructions (Qiagen Inc., Hilden, Germany). RNA concentrations were measured in triplicate using a NanoDrop ND-1000 Spectrophotometer, with purity being determined by the A260/A280 ratio using the expected values between 1.8 and 2. Total RNA quality and the degree of DNA contamination was also assessed using capillary electrophoresis Standard Sens Kit (Bio-rad), which involved descriptive comparison of chromatographic features based on previous publications using this system (Fleige and Pfaffl, Mol Aspects Med 27(2-3):126-139, 2006). […]

Setting [1] is: GZ and PM cell lines, 5-aza 0, 1, 10, 100 μM, 3 days.
The mark [2] stands for this setting: cell lines for FM carriers affected with FXS, 5-aza 0, 1, 10, 100 μM, 3 days.
The mark [3] stands for this setting: cell lines from carriers of CGG alleles ranging from normal size to FM, 5-Aza treatment.

As for `Nc1ncn([C@H]2C[C@H](O)[C@@H](CO)O2)c(=O)n1` [5-aza, 5-aza-2′-deoxycytidine], the FREE1 methylation result with FREE1 (setting [1]) is “further demethylation of FREE1”; in the experiment on FREE1 (setting [2]) it was “demethylation of FREE1”; in the experiment with FREE1 (setting [3]) it was “de-methylation of the FREE1”. In addition, the “FMR1 mRNA levels” value with FMR1 mRNA (GZ and PM cell lines) is “increase”. For the same molecule, the “mRNA levels of FMR1” value in the experiment on FMR1 mRNA (cell lines for FM carriers affected with FXS) is “increase in mRNA levels”. Besides, the “ASFMR1/FMR4 mRNA levels” value in the experiment with FMR4/ASFMR1 mRNA (setting [1]) is reported as “increase”. Also, the “mRNA levels of ASFMR1/FMR4” value in the experiment on FMR4/ASFMR1 mRNA (setting [2]) is on record as “increase in mRNA levels”. Moreover, the “FMR4/ASFMR1 transcription within the FREE1” value in the experiment on FMR4/ASFMR1 mRNA (setting [3]) is recorded as “increase FMR4/ASFMR1 transcription”.
